Measured values taken from the NIST ThermoML archive (doi:10.1007/s10765-011-0939-5).
± gives the expanded uncertainty stated by the source.

Details: Crystal; triple pt. cell

Compound	Triple point temperature [K]
[20Ne] [neon-20]	24.54 ± 8e-05
[22Ne] [neon-22]	24.69 ± 8e-05
